Common to all, as to test: Cytostatic cell culture assay (GI50), SRB
Holding throughout (format): cell-based

For one assay, the system named is Hs-578. To be noted: Hs578, 120 h; 5 days incubation. An outline of the steps:
(§1)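 SRB cytostatic assay: cells plated overnight, then exposed to 5-fold serial compound dilutions for 5 days at 37 °C, TCA-fixed, SRB-stained, OD read at 500 nm. Growth relative to day-zero and untreated plates; GI50 from sigmoidal dose-response fit.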

The test system of another assay is NCI-H23. To be noted: Homo sapiens, NCI-H23, 120 h; 5 days incubation. The method, boiled down: as §1
A further assay relates to BT-549. As to conditions: Homo sapiens, BT-549, 120 h; 5 days incubation. An outline of the steps:
as §1

In a further assay the test system is Du-145. As to conditions: Homo sapiens, DU-145, 120 h; 5 days incubation. An outline of the steps:
as §1

The next assay has as its system HCT-116. To be noted: Homo sapiens, HCT-116, 120 h; 5 days incubation. The method, boiled down: as §1
The subject of the next assay is HCT-15. To be noted: Homo sapiens, HCT-15, 120 h; 5 days incubation. The method, boiled down: as §1
The subject of a further assay is PC3. To be noted: Homo sapiens, PC-3, 120 h; 5 days incubation. The method, boiled down: as §1
A further assay deals with A549. As to conditions: Homo sapiens, A549, 120 h; 5 days incubation. The method, boiled down:
as §1

As a reminder, the GI50 is the concentration at which growth is held to half of that of the control. A low value points to greater sensitivity of the cells.

The structures appear in SMILES notation.

Consider `CCCOc1nc(N)nc2c1ncn2CCOCP(=O)(N1CCC[C@H]1C(=O)OCC)N1CCC[C@H]1C(=O)OCC` [Example 21], for which the GI50 was 17 nM in the assay with Hs-578; 2 nM with NCI-H23; 33 nM in the assay on BT-549; 2 nM with Du-145; 41 nM in the assay with HCT-116; 6700 nM in the assay with HCT-15. Also, the GI50 in the assay on PC3 was 26 nM; in the assay with A549 it was 128 nM.

These data come from US8163718B2, “Nucleoside analogues containing phosphonate or phosphonamide groups” (Gilead Sciences, Inc., priority 2008, dated 2012).
